In patent US20150157651A1, “TRI-SUBSTITUTED GLYCEROL COMPOUNDS FOR USE IN THE TREATMENT OF CLINICALLY ISOLATED SYNDROME AND/OR MULTIPLE SCLEROSIS” (ALPHAPTOSE GMBH, priority 2012, published 2015):
Converted amounts (≈) assume the structure as drawn. “Also recorded” adds a separate entry of the source.

Key:
[1] = system: human peripheral blood mononuclear cells (PBMCs); experiment: PBMC proliferation, edelfosine added on cell seeding, with or without PHA; assay type: cell-based
Procedure: (§1) FIG. 1: Human T-cell proliferation was affected by edelfosine. […] (B) The inhibitory effect of edelfosine was also observed if the drug was added to already activated, proliferating T cells. […] (C) Preincubation of PBMCs with at least 3.3 μg/ml edelfosine interfered with the cells' capacity to proliferate upon PHA stimulation. No effect was detected in preconditioned, but unstimulated cells (experiments A-C: sample size n=3 donors, each approach was seeded in triplicates). (D) 1 μg/ml edelfosine or higher concentrations profoundly diminished proliferation in MBP(83-99)-specific TCLs (T-cell line). One representative TCL of two is shown. Cells were incubated in quadruplicates. (E) PBMCs were cultured without addition of stimulus. Proliferation was detectable after seven days. […] Bars represent mean values±SEM, *P<0.05, **P<0.01 and ***P<0.001 after post-hoc analysis.
FIG. 9 describes the influence of edelfosine on human T cell proliferation. […] PBMCs were used for the examination of concentration-dependent edelfosine impact on human T cell activation and proliferation (b, 72 h of co-culture). A reduction in proliferation was already detectable upon addition of 1.0 μg/ml edelfosine (**P<0.01, n=3). Enriched CD4+ T cells from PBMCs of both two age-matched female and male donors were incubated for 30 h in presence of 3.3 μg/ml edelfosine. Cells were stimulated with beads coated with antibodies against CD2, CD3 and CD28.
In order to characterize the influence of edelfosine on the proliferation of human T cells, peripheral blood mononuclear cells (PBMCs) were first stimulated with a mitogenic stimulus, PHA (phytohemagglutinin) Proliferation was analyzed after three days of culture. First, the impact of edelfosine on T-cell activation and proliferation was investigated by adding edelfosine immediately as the cells were seeded. Cells were incubated without or in the presence of PHA. […] Here, the half maximal inhibitory concentration (IC50) was determined by nonlinear regression.

human PBMCs [2] = experiment: Proliferation of already PHA-activated, proliferating PBMCs, edelfosine added two days later; assay type: cell-based
Procedure: as §1
The second approach aimed at characterizing the edelfosine influence on already proliferating cells. For that reason cells were activated with PHA, and edelfosine was added two days later.

human PBMCs [3] = experiment: PBMC proliferation after 24 h preincubation with edelfosine, washing, then PHA stimulation; assay type: cell-based
Procedure: as §1
Cells were washed extensively to remove edelfosine followed by further culturing for three days. In control approaches cells were incubated without PHA. […] 3.3 μg/ml edelfosine or higher interfered with the cellular capacity to proliferate upon stimulation with PHA.

human PBMCs [4] = experiment: PBMC proliferation over seven days without addition of stimulus; assay type: cell-based; conditions: 3.3 μg/ml edelfosine, up to seven days
Procedure: as §1
In an additional approach PBMCs were incubated for up to seven days without the addition of a stimulus. Cells were cultured in medium alone, in presence of anti-HLA-DR- and anti-MHC class I-blocking antibody or with 3.3 μg/ml edelfosine.

human CD4+ T cells [5] = experiment: Whole genome expression (microarray) analysis of CD4+ T cells; assay type: cell-based
Procedure: FIG. 2: Modulated gene expression in CD4+ T cells upon culture with edelfosine.
Enriched CD4+ T cells from PBMCs of two age-matched female as well as two age-matched male donors were incubated for 30 h without edelfosine, in presence of 3.3 μg/ml edelfosine and 10 μg/ml edelfosine, respectively. In parallel approaches, cells were incubated with beads coated with antibodies against CD2, CD3 and CD28 or with coated beads and 3.3 μg/ml edelfosine. Cell-culture supernatant was saved and cells were subjected to RNA isolation, cDNA synthesis and microarray analysis for gene expression. Comparative gene-expression analysis was performed according to FIG. 2.
In general, edelfosine modulated the gene expression of human CD4+ T cells in the case of stimulation but also if no exogenous stimulus was added, although to a limited extent. […] Therefore, further analysis of the unstimulated cells focused on the 10 μg/ml edelfosine approach. Next, the database for annotation, visualization and integrated discovery (DAVID)-bioinformatics database was used to annotate the differentially expressed genes to functional themes/groups and assign to them so-called gene-ontology (GO) terms for specific pathways of cellular function (314). The GO project is an effort to consistently describe gene products in databases. DAVID, as a tool, is designed to allow systematical mapping of large numbers of genes in lists associated with biological annotations (e.g. GO terms). Three structured controlled vocabularies (ontologies) have been developed to describe gene products in a species-independent manner: the associated biological process (BP), cellular components and molecular functions. The GOTERM_BP_FAT set which has been specifically designed by the DAVID consortium was selected to filter the broadest terms in order to prevent overshadowing of more specific terms. FIG. 3 summarizes the top-3 GO-terms which were selected due to their highest GO P-values. As shown therein, the addition of […] edelfosine was leading to an upregulation of genes associated with apoptosis and cell death in the unstimulated setting, a finding that was in accordance with the previously described analysis for annexin V and PI after edelfosine incubation.

[6] = system: relapsing-remitting EAE (RR-EAE) model in SJL mice; experiment: Relapsing-remitting EAE disease course, clinical scoring; assay type: in vivo
Source text: FIG. 6 describes the influence of edelfosine on EAE disease course. Our aim was to study the effect of edelfosine on the immune system in the context of experimental autoimmune encephalomyelitis (EAE), an animal model of multiple sclerosis. In the course of EAE CD4+ T cell and mononuclear cell inflammation is followed by axonal damage and demyelination in the central nervous system (CNS) which results in progressive hind-limb paralysis. In order to analyze the anti-inflammatory properties of edelfosine we have used the relapsing-remitting EAE (RR-EAE) model in SJL mice. We also examined the edelfosine impact on human T-cell proliferation. For EAE induction SJL mice were immunized with the proteolipid PLP(139-151). Edelfosine was adminstered by intraperitoneal injection from day 0 at a daily basis. EAE disease course was assessed by clinical scoring in a 0-5 scale until day 40 (*P<0.05, 2-way ANOVA, n=7). To investigate the therapeutic effect of edelfosine on RR-EAE disease course, SJL mice were immunized and treatment of the mice was started at disease onset by intraperitoneal injection from day 11 at a daily basis until day 45.

[7] = system: lymph node cells of SJL mice; experiment: Ex vivo thymidine proliferation of lymph node cells from treated immunized mice; assay type: in vivo
Procedure: FIG. 7 describes the impact of edelfosine on proliferation of antigen-specific cells. To examine the influence of edelfosine on antigen-specific cells in the periphery lymph nodes from SJL mice were prepared for thymidine proliferation assays 9 days after immunization. Cells were restimulated ex vivo by addition of mitogenic- (a), polyclonal or disease-relevant (PLP(139-151); b) antigen.

[8] = system: CNS-infiltrating cells of EAE SJL mice; experiment: CNS cellular infiltration in EAE acute phase, flow cytometry; assay type: in vivo; conditions: 15 days after EAE induction
Procedure: FIG. 8 describes the effect of edelfosine on CNS cellular infiltration in EAE acute phase. SJL mice were immunized with […]. 15 days after EAE induction CNS cells were analyzed by flow cytometry. The administration of 10 mg/kg edelfosine reduced the absolute number of CNS-infiltrating CD45+ leukocytes (a). […] We found a significant treatment effect with a significant difference between 10 mg/kg edelfosine and PBS treatment in CD4+ cells (*P<0.05 compared to PBS control group, post-hoc comparison after 1-way ANOVA, n=4). Similar differences were found for T cells in spleens at day 9 after immunization.

non-stimulated PBMCs = experiment: Flow cytometry of non-stimulated PBMCs for cell death; assay type: cell-based, human; conditions: 10 μg/ml or 33.3 μg/ml, 24 h
human CD4+ T cells [9] = experiment: Whole genome expression (microarray) analysis of CD4+ T cells; assay type: cell-based; conditions: unstimulated cells, 10 μg/ml, 30 h
[10] = cells stimulated with anti-CD2/CD3/CD28 beads, 3.3 μg/ml, 30 h
[11] = unstimulated cells, 10 μg/ml, 30 h

CCCCCCCCCCCCCCCCCCOC[C@H](COP(=O)([O-])OCC[N+](C)(C)C)OC (racemic) [edelfosine, 1-O-octadecyl-2-O-methyl-sn-glycero-3-phosphocholine]
IC50 ([1]; Homo sapiens, PBMC, 72 h, read-out: half maximal inhibitory concentration (IC50) of proliferation, PHA-stimulated cells, edelfosine added at seeding, three days of culture): 0.64 ± 0.1 µg/mL (≈ 1.22 µM)
fold lower concentration at which PHA-activated cells are susceptible compared to cells without PHA ([1]; PHA-activated versus unstimulated PBMCs): 10 fold
edelfosine concentration at which a reduction in proliferation was detectable ([1]; unstimulated controls, added at seeding, three days): ≥ 10 µg/mL
edelfosine concentration giving efficient reduction of proliferation (human PBMCs [2]; PHA-activated cells, edelfosine added two days later): ≥ 3.3 µg/mL
edelfosine concentration giving significant reduction of proliferation (human PBMCs [2]; unstimulated controls): 33.3 µg/mL
edelfosine concentration up to which cells retain proliferative function (human PBMCs [3]; 24 h preincubation, washed, PHA stimulation, three days): up to 1 μg/ml
effect on proliferation (human PBMCs [3]; preconditioned but unstimulated cells): no significant reductions of proliferation; also recorded: No effect
effect on proliferation without stimulus (human PBMCs [4]): reduced to non-detectable levels; also recorded: inhibited cellular proliferation
expression of cell cycle-associated genes (human CD4+ T cells [5]; [10]): downmodulation; also recorded: down-regulated
expression of genes associated with apoptosis and cell death (human CD4+ T cells [5]; [10]): upregulation
expression of immune and virus response-associated, type I interferon-related genes (human CD4+ T cells [5]; [10]): consistent and profound upregulation; also recorded: upregulated
number of downregulated genes assigned to antigen processing and presentation (SLR≦−0.8) (human CD4+ T cells [5]; unstimulated cells, 10 μg/ml): 25
expression of immune response and antigen processing and presentation (MHC class II) genes (human CD4+ T cells [5]; [11]): downmodulation; also recorded: downregulated
number of upregulated genes (SLR≧0.8) (human CD4+ T cells [5]; [11]): 11
EAE disease course ([6]; prophylactic, 10 mg/kg daily intraperitoneal from day 0): EAE amelioration
EAE disease course ([6]; therapeutic, 10 mg/kg daily intraperitoneal from disease onset (day 11)): EAE amelioration
proliferative function of lymph node cells on ex vivo restimulation ([7]; 9 days after immunization, edelfosine-treated mice): retained their proliferative function
proliferation on re-activation with PLP peptide ([7]; 9 days after immunization, ex vivo PLP restimulation): edelfosine dose-dependent proliferation
SI compared to PBS treatment of mice ([7]; antigen-induced proliferation, edelfosine-treated mice): increased SI
absolute number of CNS-infiltrating CD45+ leukocytes ([8]; 10 mg/kg): reduced
frequencies of CD8+ T cells ([8]; 10 mg/kg): not affected
infiltrating CD4+ T cells ([8]; 10 mg/kg): relative decrease
activation of caspase 3 in CNS CD4+ T cells ([8]; significant for 10 mg/kg versus PBS): dose-dependent activation; also recorded: increased
cell death in non-stimulated PBMCs (non-stimulated PBMCs): induction of non-apoptotic cell death
expression of apoptosis- and cell death-associated genes (human CD4+ T cells [9]): upregulation
